The values that follow are results of earlier work, collected in patent publication US20090241222A1, “TANDEM REAPEAT DNA CONSTRUCTS PRODUCING PROTEINS THAT ATTACK PLANT PATHOGENIC VIRUSES, FUNGI, AND BACTERIA BY DISRUPTING TRANSCRIPTION FACTORS ESSENTIAL FOR REPLICATION THEREOF IN PLANTS” (priority 2008, published 2009).

The structures appear in SMILES notation.

In this series the test system is Magnaporthe grisea. To be noted: PA treated plants; cited from earlier work.

With `O=C(O)c1ccccn1` [picolinic acid, 2-pyridine carboxylic acid], the “resistance against M. grisea” value is listed as “enhanced”.
